Test results as given in patent US20240173440A1, “HIGH PURITY COPPER RADIOPHARMACEUTICAL COMPOSITIONS AND DIAGNOSTIC AND THERAPEUTIC USES THEREOF” (Nuclidium AG, priority 2022, published 2024).

Assays:
[1] = tested on: LNCaP cells; experiment: In vitro cellular uptake (cell surface and internalized fractions) in LNCaP cells; assay type: cell-based
Protocol: The cellular uptake was studied in vitro using intact cells seeded in 6-well plates overnight. On the day of the experiment, the cells were washed and incubated with each of the exemplified [^61Cu]Cu-radiotracer at different time points, either alone or in the presence of a blocking agent to distinguish between specific and non-specific uptake. At each investigated time point, the medium containing the unbound (free) radiotracer was removed, followed by two washing steps with ice-cold phosphate-buffered saline. The cells were then treated 2×5 min with ice-cold glycine solution (0.05 M, pH 2.8) to detach the cell surface-bound radiotracer (acid released). Afterwards, the cells containing the internalized radiotracer were detached with 1 M NaOH at 37° C. and collected for measurement. The amount of specific cell surface-bound and internalized radiotracer is expressed as percentage of the total applied activity, after subtracting the non-specific values.
2-(phosphonomethyl)-pentanedioic acid (2-PMPA, 10 μM) was used to determine non-specific binding (FIG. 14).
Cellular uptake and distribution between cell surface (cell membrane bound) and internalized fractions of ^61Cu-labeled PSMA-I&T constructs versus their ^68Ga counterparts (Table 19). The values are expressed as % of the applied activity and refer to the specific uptake calculated after subtracting the non-specific values (measured in the presence of 10 μM 2-PMPA) from the total values (specific=total−non specific).

[2] = tested on: LNCaP xenografts; experiment: PET/CT imaging in LNCaP xenografted mice; assay type: in vivo; settings: LNCaP-xenografted nude mice
Protocol: Tumor xenografted mice were injected intravenously into the tail vein with the tested radiotracer. […] Mice were anesthetized with 1.5% isoflurane and dynamic PET scans were acquired during 1 hour upon injection of the radiotracer. The mice were euthanized by CO2 at 4 hours p.i., the bladder was mechanically emptied, and static PET scans were acquired for 30 min. PET images were acquired using the R-CUBE PET scanner system (MOLECUBES, Gent, Belgium) and they were decay corrected and reconstructed with the VivoQuant software version 4.0. The CT was imaged supine, headfirst, using the NanoSPECT/CT™ scanner (Bioscan Inc.). Topograms and helical CT scans of the whole mouse were first acquired using the following parameters: X-ray tube current: 177 μA, X-ray tube voltage 45 kVp, 90 seconds and 180 frames per rotation, pitch 1. CT images were reconstructed using CTReco (version r1.146), with a standard filtered back projection algorithm (exact cone beam) and post-filtered (RamLak, 100% frequency cut-off), resulting in a pixel size of 0.2 mm. Co-registered PET/CT images were visualized using maximum intensity projection (MIP) with InVivoScope (version 1.43, Bioscan Inc.). The results are presented in the Examples that follow.

[3] = molecular target: PSMA (Homo sapiens (Human), UniProt Q04609); experiment: Specificity study: PET/CT in LNCaP xenografts after blocking with 2-PMPA, and free [61Cu]CuCl2; assay type: in vivo, mice; settings: PET/CT 1 hour p.i.
Chain of PSMA (Q04609 whole entry): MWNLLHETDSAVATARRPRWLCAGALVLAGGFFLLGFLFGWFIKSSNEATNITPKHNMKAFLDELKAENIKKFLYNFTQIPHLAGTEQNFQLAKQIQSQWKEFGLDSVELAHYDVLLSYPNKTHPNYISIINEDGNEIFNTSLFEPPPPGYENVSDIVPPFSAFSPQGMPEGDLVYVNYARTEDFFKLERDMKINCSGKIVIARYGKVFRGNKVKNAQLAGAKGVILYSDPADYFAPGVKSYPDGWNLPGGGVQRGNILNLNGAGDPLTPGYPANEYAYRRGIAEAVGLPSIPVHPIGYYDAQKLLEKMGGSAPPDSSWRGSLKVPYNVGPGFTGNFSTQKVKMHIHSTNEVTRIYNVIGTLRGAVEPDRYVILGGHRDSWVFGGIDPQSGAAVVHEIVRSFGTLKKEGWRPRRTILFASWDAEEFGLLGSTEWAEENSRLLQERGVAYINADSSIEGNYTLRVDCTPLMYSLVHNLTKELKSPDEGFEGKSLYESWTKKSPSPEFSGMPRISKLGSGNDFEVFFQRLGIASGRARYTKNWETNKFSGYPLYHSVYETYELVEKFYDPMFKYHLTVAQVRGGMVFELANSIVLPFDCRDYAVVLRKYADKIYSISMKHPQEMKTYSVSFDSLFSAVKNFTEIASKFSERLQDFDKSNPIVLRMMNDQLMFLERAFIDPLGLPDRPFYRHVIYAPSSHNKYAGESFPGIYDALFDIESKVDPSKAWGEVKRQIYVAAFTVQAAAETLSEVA
Protocol: The specificity of [^61Cu]Cu-NODAGA-PSMA-I&T and [^61Cu]Cu-DOTAGA-PSMA-I&T was assessed in LNCaP xenografted mice, firstly injected with 1.3 μmol (300 μg) of 2-Phosphonomethyl pentanedioic acid (2-PMPA) as the blocking agent, followed by the injection of the radiotracer e.g. [^61Cu]Cu-DOTAGA-PSMA-I&T (100 μL/[…]/4-8 MBq) or [^61Cu]Cu-NODAGA-PSMA-I&T (100 μL/[…]/4-8 MBq). One-hour post injection PET/CT images were acquired as described in Example 8. In addition, PET/CT image of xenografts after injection of [^61Cu]CuCl2 (100 μL/7 MBq) was acquired in order to assess the total body distribution of free (uncomplexed)^61Cu. The results are shown in FIG. 10, panels A and B. L=liver; K=kidneys; T=tumor; Bl=bladder; I=intestine.

O=C(O)CC[C@H](NC(=O)N[C@@H](CCCCNC(=O)CCCCCCC(=O)NCCCC[C@@H](NC(=O)[C@@H](Cc1ccccc1)NC(=O)[C@@H](Cc1ccc(O)c(I)c1)NC(=O)CC[C@H](C(=O)O)N1CCN2CCN(CC1)CC(=O)[O][61Cu][O]C(=O)C2)C(=O)O)C(=O)O)C(=O)O [[^61Cu]Cu-NODAGA-PSMA-I&T]
Cell surface fraction ([1]; 5 min, specific uptake): 4.3 ± 0.7 % of the applied activity | Internalized fraction ([1]; 5 min, specific uptake): 1.2 ± 0.2 % of the applied activity | Cell surface fraction ([1]; 15 min, specific uptake): 8.2 ± 1.0 % of the applied activity | Internalized fraction ([1]; 15 min, specific uptake): 3.9 ± 0.4 % of the applied activity | Cell surface fraction ([1]; 30 min, specific uptake): 10.7 ± 1.0 % of the applied activity | Internalized fraction ([1]; 30 min, specific uptake): 7.0 ± 1.1 % of the applied activity | Cell surface fraction ([1]; 60 min, specific uptake): 10.8 ± 1.8 % of the applied activity | Internalized fraction ([1]; 60 min, specific uptake): 11.7 ± 1.6 % of the applied activity | Cell surface fraction ([1]; 120 min, specific uptake): 10.2 ± 1.8 % of the applied activity | Internalized fraction ([1]; 120 min, specific uptake): 17.6 ± 2.8 % of the applied activity | Internalized fraction ([1]; after 1 h at 37° C.): 12±1.9% | cellular uptake in vitro ([1]; after 1 h at 37° C.): 26.6±0.9% | PSMA-mediated cellular uptake ([1]; after 2h at 37° C.): approx. 35% | part of the cellular uptake being internalized ([1]; after 2h at 37° C.): 50-60% | distribution on PET/CT images [2]: accumulated in the tumor, increasing from 15 up to 60 min p.i., and in the kidneys | uptake in PSMA-positive tumors and kidneys in xenografts pre-injected with 2-PMPA [3]: significantly lower uptake
